Values after ≈ are worked out from the molar mass of the structure shown.

The values below come from patent publication US4683230A, “BMY-28121, a new antitumor antibiotic” (Bristol-Myers Company, priority 1985, dated 1987).

In data set [1] the test system is Clostridium perfringens A22787. Briefly: microbe, parasite or virus in culture. Type of data set: cell-based.
The subject of another data set is B16 melanoma. Briefly: Antitumor activity in mice, melanotic melanoma B16. Particulars: ip, once daily for 9 days, circled = significant antitumor effect.
The next data set relates to anaerobic bacteria. Type of data set: cell-based.
Data set [2] is described as follows: Acute toxicity in mice, single intraperitoneal administration. Also noted: species or system mice (male ddY strain). Particulars: mouse, in vivo, ip, male ddY mice.
The subject of a further data set is P388 leukemia. Conditions: mouse, in vivo.

Compound `CC1(C)S[C@@H]2[C@H](NC(=O)[C@H](N)c3ccccc3)C(=O)N2[C@H]1C(=O)O` [Ampicillin] showed an MIC in data set [1] of 0.1 µg/mL (≈ 0.286 µM).
Take `CO[C@@]12[C@H](COC(N)=O)C3=C(C(=O)C(C)=C(N)C3=O)N1C[C@@H]1N[C@@H]12` [Mitomycin C]: the “T/C % of MST” value in the data set with B16 melanoma (0.13 mg/kg/day) is 124%; with B16 melanoma (0.25 mg/kg/day) it was 136%.
As for `COc1cccc2c1N[C@H](OC)[C@@H]1CC(/C=C/C(=O)N(C)C)=CN1C2=O` [BMY-28121B, 1,10,11,11a-tetrahydro-9,11-dimethoxy-5H-pyrrolo[2,1-c][1,4]benzodiazepine-5-one-2-N,N-dimethylacrylamide], the “solubility in ethyl acetate and ethyl ether” value is given as “slightly soluble”; the “solubility in methanol, ethanol, chloroform, pyridine, and dimethylformamide” value is “readily soluble”; the solubility in n-hexane result is “practically insoluble”; the solubility in water result is given as “practically insoluble”. In addition, in the data set with anaerobic bacteria, the “inhibition of anaerobic bacteria” value is recorded as “inhibited all”. Besides, the LD50 in data set [2] worked out at 0.81 mg/kg. Moreover, in the data set on P388 leukemia, the “antitumor activity against experimental tumors in mice, eg. P388 leukemia” value is recorded as “marked antitumor activity”.
Take `COc1cccc2c1N[C@H](O)[C@@H]1CC(/C=C/C(=O)N(C)C)=CN1C2=O` [BMY-28121A]: in the data set with P388 leukemia, the “antitumor activity against experimental tumors in mice, eg. P388 leukemia” value was “marked antitumor activity”.

As a reminder, the LD50 is the dose at which mortality reaches 50%. A higher LD50 goes with a less toxic substance.
